Laboratory results from patent US9662308B2, “Orally bioavailable pentamidine prodrugs for the treatment of diseases” (Dritte Patentportfolio Beteiligungsgesellschaft mbH & Co. KG, priority 2008, dated 2017).
Converted amounts (≈) assume the structure as drawn. Like-named read-outs stand apart in the source and are kept apart here.

Tests used:
[1] = Solubility in 50 mM phosphate buffer (HPLC); conditions: for solubility at 20 min: 50 mM phosphate buffer, thermodynamic from solid
Experimental: […] Subsequently, the undissolved part was removed by centrifugation (12,000 rpm) and the samples were immediately measured by HPLC. The evaluation of the solubility ensued via a calibration of N,N′-bis(succinyloxy)pentamidine (1) in DMSO.
Solubilities were determined analogously to the method described for compound 1.

[2] = rat, in vivo
[3] = tested on: 9000×g supernatants, microsomes and mitochondria of human liver and kidney tissues; format: in vitro ADME; conditions: pH 6.3
Experimental: The activation of the prodrug was determined in vitro by means of subcellular enzyme preparations. 9000×g of supernatants, microsomes and mitochondria of human and porcine liver and kidney tissues were used as the enzyme preparations. The incubation batches were composed of […] prodrug, 1 mM NADH, 1 U esterase and 0.3 mg enzyme preparation dissolved in 150 μ100 mM phosphate buffer, pH 6.3. The incubation took place over 20 min in a shaking water bath at 37° C. The incubation was terminated by adding 150 μl of acetonitrile. The samples were subsequently shaken for 10 min and the precipitated protein was removed by centrifuging at 10,000 RPM for 15 min. The supernatant was measured by means of HPLC.

[4] = Experimental: For the stability analyses, a 0.1 mM solution of N,N′-bis(succinyloxy)pentamidine (1) was prepared in a 50 mM potassium phosphate buffer/DMSO (90/10, vol/vol). The analysis took place at pH values of 2.0, 7.4 and 9.0. One sample was taken and immediately analyzed by HPLC every 15 min over a period of 150 min.
(§1) The stability analyses were evaluated by means of the following HPLC method: […]

[5] = remark: listed apart in the source
Experimental: Samples were stored at room temperature and 70° C. over a defined period and examined for analyzing the prodrug (1) storage stability. The storage period was 6 months for the room temperature samples, 7 days for the 70° C. samples. The prodrug (1) content was determined by means of HPLC. For this purpose, the samples were dissolved in a mixture of equal parts of methanol and phosphate buffer (20 mM, pH 7.4) and immediately measured. The HPLC method corresponds to the method described under “Characterization of the prodrugs”.

[6] = remark: listed apart in the source
Experimental: Further analyses were conducted with human and murine plasma. 900 μl of the plasma was mixed with 100 μl of a 2 mM solution of N,N′-bis(succinyloxy)pentamidine (1). The final concentration of N,N′-bis(succinyloxy)pentamidine (1) was thus 0.2 mM. The samples were incubated at 37° C. in a shaking water bath and samples were taken after 0, 15, 30, 45, 60, 75, 90, 105 and 120 min. For this purpose, 100 μl was drawn in each case and mixed with 100 μl acetonitrile. The samples were shaken, centrifuged for 5 min and the supernatant was measured by HPLC.
as §1

trypanosomes = conditions: cited from earlier work
plasmodia = conditions: cited from earlier work
leishmania = conditions: cited from earlier work

SMILES: CC(=O)ON=C(N)c1ccc(OCCCCCOc2ccc(C(N)=NOC(C)=O)cc2)cc1 [N,N′-bis(acetoxy)pentamidine]
- Solubility ([1]; pH 2.0): 14 ± 8 µM (≈ 6.39 µg/mL)
- Solubility ([1]; pH 7.4): 2 ± 1 µM (≈ 0.913 µg/mL)
- Solubility ([1]; pH 9.0): 3 ± 2 µM (≈ 1.37 µg/mL)

SMILES: NC(=NO)c1ccc(OCCCCCOc2ccc(C(N)=NO)cc2)cc1 [N,N′-bis(dihydroxy)pentamidine]
- Solubility ([1]; pH 2.0): >35000 µM
- Solubility ([1]; pH 7.4): 95 ± 8 µM (≈ 35.4 µg/mL)
- Solubility ([1]; pH 9.0): 21 ± 3 µM (≈ 7.82 µg/mL)

SMILES: CON=C(N)c1ccc(OCCCCCOc2ccc(C(N)=NOC)cc2)cc1 [N,N′-bis(methoxy)pentamidine]
- Solubility ([1]; pH 2.0): 1304 ± 28 µM (≈ 522 µg/mL)
- Solubility ([1]; pH 7.4): 8 ± 1 µM (≈ 3.2 µg/mL)
- Solubility ([1]; pH 9.0): 10 ± 2 µM (≈ 4 µg/mL)

SMILES: N=C(NOC(=O)CCC(=O)O)c1ccc(OCCCCCOc2ccc(C(=N)NOC(=O)CCC(=O)O)cc2)cc1 [N,N′-bis(succinyloxy)pentamidine (1), 4,4′-Pentamethylendioxy-bis-[N-(carboxypropionyloxy)]benzamidine]
- Solubility [1]: 7500 µM (≈ 4290 µg/mL)
- Solubility ([1]; pH 2): hydrolysis
- Solubility in acidic medium ([1]; pH 2): in the mM range
- Solubility ([1]; pH 7.4): 7500 ± 340 µM (≈ 4290 µg/mL)
- Solubility ([1]; pH 9): 10780 ± 70 µM (≈ 6170 µg/mL)
- Relative oral bioavailability [2]: up to 98%
- Pentamidine formation (conversion rate) [3]: 0.04 ± 0.01 nmol/min/mg
- Stability in the neutral and slightly alkaline pH range [4]: stable
- Hydrolysis in aqueous medium ([4]; pH 2.0): rapid hydrolysis
- Hydrolysis into monosuccinyl pentamidine and pentamidine diamidoxime (3) ([4]; pH 7.4): only to a minor extent
- Hydrolysis into monosuccinyl pentamidine and pentamidine diamidoxime (3) ([4]; pH 9.0): only to a minor extent
- content pentamidine diamidoxime(3) ([5]; 70° C., 0 days): 0.4 ± 0.01% area %
- content prodrug (1) ([5]; 70° C., 0 days): 98.4 area %
- content succinyloxypentamidin ([5]; 70° C., 0 days): 1.0 ± 0.02% area %
- content pentamidine diamidoxime(3) ([5]; 70° C., 1 day): 0.9 ± 0.01% area %
- content prodrug (1) ([5]; 70° C., 1 day): 98.0 area %
- content succinyloxypentamidin ([5]; 70° C., 1 day): 1.1 ± 0.03% area %
- content pentamidine diamidoxime(3) ([5]; 70° C., 2 days): 1.0 ± 0.01% area %
- content prodrug (1) ([5]; 70° C., 2 days): 97.6 area %
- content succinyloxypentamidin ([5]; 70° C., 2 days): 1.3 ± 0.20% area %
- content pentamidine diamidoxime(3) ([5]; 70° C., 4 days): 1.1 ± 0.01% area %
- content prodrug (1) ([5]; 70° C., 4 days): 97.9 area %
- content succinyloxypentamidin ([5]; 70° C., 4 days): 0.9 ± 0.01% area %
- content pentamidine diamidoxime(3) ([5]; 70° C., 7 days): 1.5 ± 0.13% area %
- content prodrug (1) ([5]; 70° C., 7 days): 97.4 area %
- content succinyloxypentamidin ([5]; 70° C., 7 days): 1.1 ± 0.26% area %
- content pentamidine diamidoxime(3) ([5]; room temperature, 0 months): 0.4 ± 0.01% area %
- content prodrug (1) ([5]; room temperature, 0 months): 98.4 area %
- content succinyloxypentamidine ([5]; room temperature, 0 months): 1.0 ± 0.02% area %
- content pentamidine diamidoxime(3) ([5]; room temperature, 0.5 months): 0.5 ± 0.01% area %
- content prodrug (1) ([5]; room temperature, 0.5 months): 98.4 area %
- content succinyloxypentamidine ([5]; room temperature, 0.5 months): 1.0 ± 0.03% area %
- content pentamidine diamidoxime(3) ([5]; room temperature, 1 month): 0.2 ± 0.02% area %
- content prodrug (1) ([5]; room temperature, 1 month): 98.6 area %
- content succinyloxypentamidine ([5]; room temperature, 1 month): 1.2 ± 0.16% area %
- content pentamidine diamidoxime(3) ([5]; room temperature, 2 months): 0.6 ± 0.16% area %
- content prodrug (1) ([5]; room temperature, 2 months): 97.5 area %
- content succinyloxypentamidine ([5]; room temperature, 2 months): 1.8 ± 0.02% area %
- content pentamidine diamidoxime(3) ([5]; room temperature, 3 months): 0.6 ± 0.01% area %
- content prodrug (1) ([5]; room temperature, 3 months): 97.5 area %
- content succinyloxypentamidine ([5]; room temperature, 3 months): 1.8 ± 0.04% area %
- content pentamidine diamidoxime(3) ([5]; room temperature, 6 months): 0.5 ± 0.01% area %
- content prodrug (1) ([5]; room temperature, 6 months): 97.8 area %
- content succinyloxypentamidine ([5]; room temperature, 6 months): 1.5 ± 0.19% area %
- Hydrolysis in plasma [6]: markedly

SMILES: CC(C)[C@H](N)C(=O)O/N=C(\N)c1ccc(OCCCCCOc2ccc(/C(N)=N/OC(=O)[C@@H](N)C(C)C)cc2)cc1 [N,N′-bis(valoxy)pentamidine]
- Solubility ([1]; pH 2.0): >35000 µM
- Solubility ([1]; pH 7.4): 157 ± 19 µM (≈ 89.6 µg/mL)
- Solubility ([1]; pH 9.0): 84 ± 18 µM (≈ 47.9 µg/mL)

SMILES: N/C(=N\O)c1ccc(OCCCCCOc2ccc(/C(N)=N/O)cc2)cc1 [Pentamidine diamidoxime (3), Pentamidine diamidoxime]
- solubility at 20 min ([1]; pH 2, aqueous buffer): 4210 ± 231 µM (≈ 1570 µg/mL)
- solubility at 20 min ([1]; pH 7.4, aqueous buffer): 12 ± 1 µM (≈ 4.47 µg/mL)
- solubility at 20 min ([1]; pH 9, aqueous buffer): 4 ± 1 µM (≈ 1.49 µg/mL)

SMILES: N=C(N)c1ccc(OCCCCCOc2ccc(C(N)=NO)cc2)cc1 [Pentamidine monoamidoxime]
- Solubility ([1]; pH 2.0): 22285 ± 1244 µM (≈ 7940 µg/mL)
- Solubility ([1]; pH 7.4): 1370 ± 291 µM (≈ 488 µg/mL)
- Solubility ([1]; pH 9.0): 1257 ± 40 µM (≈ 448 µg/mL)

SMILES: N=C(N)c1ccc(OCCCCCOc2ccc(C(=N)N)cc2)cc1 [Pentamidine]
- IC50 (trypanosomes): 0.8 to 3.2 nM
- IC50 (plasmodia): 35 to 129 nM
- IC50 (leishmania): 820 to 2590 nM
